Test system: 485368-065-R3-J5-PDC spheroids with HUVEC/MSC, viability
Experiment: Anticancer human tumor 485368-065-R3-J5-PDC patient-derived pancreatic carcinoma cell line growth inhibition [RAS]
Details: for IC50: curve of first compound; for viability, T/C: stronger effect = lower value
In short: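 Multi-cell-type spheroids: tumor cells plus HUVEC endothelial cells and mesenchymal stem cells. RAS-pathway inhibitors were combined with targeted agents, each dosed in half-log steps down from clinical Cmax, or from 10 microM when Cmax was unknown.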

[1] = second compound 0.000949 µM, first compound 0.0316 µM
[2] = second compound 0.000949 µM, first compound 0.1 µM
[3] = second compound 0.000949 µM, first compound 0.316 µM
[4] = second compound 0.000949 µM, first compound 1 µM
[5] = second compound 0.003 µM, first compound 0.0316 µM
[6] = second compound 0.003 µM, first compound 0.1 µM
[7] = second compound 0.003 µM, first compound 0.316 µM
[8] = second compound 0.003 µM, first compound 1 µM
[9] = second compound 0.00949 µM, first compound 0.0316 µM
[10] = second compound 0.00949 µM, first compound 0.1 µM
[11] = second compound 0.00949 µM, first compound 0.316 µM
[12] = second compound 0.00949 µM, first compound 1 µM
[13] = second compound 0.03 µM, first compound 0.0316 µM
[14] = second compound 0.03 µM, first compound 0.1 µM
[15] = second compound 0.03 µM, first compound 0.316 µM
[16] = second compound 0.03 µM, first compound 1 µM
[17] = second compound 0.0949 µM, first compound 0.0316 µM
[18] = second compound 0.0949 µM, first compound 0.1 µM
[19] = second compound 0.0949 µM, first compound 0.316 µM
[20] = second compound 0.0949 µM, first compound 1 µM
[21] = second compound 0.3 µM, first compound 0.0316 µM
[22] = second compound 0.3 µM, first compound 0.1 µM
[23] = second compound 0.3 µM, first compound 0.316 µM
[24] = second compound 0.3 µM, first compound 1 µM
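Note: spheroids exposed to agents for seven days before readout.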

Which results are given for CC(=O)OC12COC1CC(O)C1(C)C(=O)C(O)C3=C(C)C(OC(=O)C(O)C(NC(=O)OC(C)(C)C)c4ccccc4)CC(O)(C(OC(=O)c4ccccc4)C21)C3(C)C (centres undefined) + CCn1c(-c2cccnc2C(C)OC)c2c3cc(ccc31)N1CCOC(CC(NC(=O)C(C(C)C)N(C)C(=O)C3(F)CCN(C(=O)C#CC(C)(C)N(C)C)CC3)C(=O)N3CCCC(N3)C(=O)OCC(C)(C)C2)C1?
IC50 (second compound 0.000949 µM): < 31.6 nM; IC50 (second compound 0.003 µM): < 31.6 nM; IC50 (second compound 0.00949 µM): < 31.6 nM; IC50 (second compound 0.03 µM): < 31.6 nM; IC50 (second compound 0.0949 µM): < 31.6 nM; IC50 (second compound 0.3 µM): < 31.6 nM; viability, T/C [1]: 12.6%; viability, T/C [2]: 14.3%; viability, T/C [3]: 13.1%; viability, T/C [4]: 13.9%; viability, T/C (second compound 0.000949 µM, first compound 3.16 µM): 21.4%; viability, T/C (second compound 0.000949 µM, first compound 10 µM): 25.7%; viability, T/C [5]: 15.6%; viability, T/C [6]: 13.6%; viability, T/C [7]: 14%; viability, T/C [8]: 16.9%; viability, T/C (second compound 0.003 µM, first compound 3.16 µM): 18.9%; viability, T/C (second compound 0.003 µM, first compound 10 µM): 25.5%; viability, T/C [9]: 13.2%; viability, T/C [10]: 15.1%; viability, T/C [11]: 14%; viability, T/C [12]: 22.6%; viability, T/C (second compound 0.00949 µM, first compound 3.16 µM): 21.1%; viability, T/C (second compound 0.00949 µM, first compound 10 µM): 27.4%; viability, T/C [13]: 12.2%; viability, T/C [14]: 18.4%; viability, T/C [15]: 19.4%; viability, T/C [16]: 16.6%; viability, T/C (second compound 0.03 µM, first compound 3.16 µM): 21.1%; viability, T/C (second compound 0.03 µM, first compound 10 µM): 26%; viability, T/C [17]: 10.7%; viability, T/C [18]: 16.4%; viability, T/C [19]: 14.5%; viability, T/C [20]: 12.2%; viability, T/C (second compound 0.0949 µM, first compound 3.16 µM): 21.3%; viability, T/C (second compound 0.0949 µM, first compound 10 µM): 27.5%; viability, T/C [21]: 13.1%; viability, T/C [22]: 16.8%; viability, T/C [23]: 15.9%; viability, T/C [24]: 17.6%; viability, T/C (second compound 0.3 µM, first compound 3.16 µM): 27.7%; viability, T/C (second compound 0.3 µM, first compound 10 µM): 27.5%

Which results are given for Nc1ccn(C2OC(CO)C(O)C2(F)F)c(=O)n1 (centres undefined) + CCn1c(-c2cccnc2C(C)OC)c2c3cc(ccc31)N1CCOC(CC(NC(=O)C(C(C)C)N(C)C(=O)C3(F)CCN(C(=O)C#CC(C)(C)N(C)C)CC3)C(=O)N3CCCC(N3)C(=O)OCC(C)(C)C2)C1?
IC50 (second compound 0.000949 µM): 7.04 nM; IC50 (second compound 0.003 µM): 6.7 nM; IC50 (second compound 0.00949 µM): 9.21 nM; IC50 (second compound 0.03 µM): 6.7 nM; IC50 (second compound 0.0949 µM): 6.84 nM; IC50 (second compound 0.3 µM): 6.66 nM; viability, T/C (second compound 0.000949 µM, first compound 0.00316 µM): 94.9%; viability, T/C (second compound 0.000949 µM, first compound 0.01 µM): 30.4%; viability, T/C [1]: 11.6%; viability, T/C [2]: 11%; viability, T/C [3]: 14.4%; viability, T/C [4]: 11.8%; viability, T/C (second compound 0.003 µM, first compound 0.00316 µM): 89.2%; viability, T/C (second compound 0.003 µM, first compound 0.01 µM): 29.2%; viability, T/C [5]: 10.5%; viability, T/C [6]: 9.86%; viability, T/C [7]: 13.8%; viability, T/C [8]: 13.4%; viability, T/C (second compound 0.00949 µM, first compound 0.00316 µM): 94.2%; viability, T/C (second compound 0.00949 µM, first compound 0.01 µM): 46.6%; viability, T/C [9]: 11.3%; viability, T/C [10]: 11.4%; viability, T/C [11]: 11.3%; viability, T/C [12]: 12.1%; viability, T/C (second compound 0.03 µM, first compound 0.00316 µM): 89.7%; viability, T/C (second compound 0.03 µM, first compound 0.01 µM): 28.8%; viability, T/C [13]: 12.1%; viability, T/C [14]: 12.9%; viability, T/C [15]: 11.7%; viability, T/C [16]: 10.4%; viability, T/C (second compound 0.0949 µM, first compound 0.00316 µM): 96.9%; viability, T/C (second compound 0.0949 µM, first compound 0.01 µM): 26.8%; viability, T/C [17]: 11.9%; viability, T/C [18]: 9.81%; viability, T/C [19]: 12.7%; viability, T/C [20]: 10.6%; viability, T/C (second compound 0.3 µM, first compound 0.00316 µM): 94%; viability, T/C (second compound 0.3 µM, first compound 0.01 µM): 25.7%; viability, T/C [21]: 12.1%; viability, T/C [22]: 11%; viability, T/C [23]: 11.5%; viability, T/C [24]: 9.33%
